According to PMC8016998, “Identification of potential therapeutic antimicrobial peptides against Acinetobacter baumannii in a mouse model of pneumonia” (Scientific Reports, 2021):
No end group written: not given here.

Tests used:
MDRAB clinical strain K2 = type: cell-based, Acinetobacter baumannii; conditions: 24 h
Method: (§2) MBC were determined by extending the MIC procedure in sterilized 96-well polypropylene microtiter plates according to the broth microdilution guidelines of the Clinical and Laboratory Standards Institute with some modification[47]. […] In addition, 10 µL was drawn from each well with no visible turbidity onto LB agar plates and incubated for 24 h at 37 °C. The lowest concentration showing no visible growth on agar subculture was used as the MBC value. All experiments were performed in triplicate.

[1] = tested on: MDRAB clinical strain AZ93; type: cell-based, Acinetobacter baumannii; conditions: 24 h
Method: as §2

[2] = tested on: MDRAB clinical strain AK61; type: cell-based, Acinetobacter baumannii; conditions: 24 h
Method: as §2

[3] = tested on: MDRAB clinical strain AF11; type: cell-based, Acinetobacter baumannii; conditions: 24 h
[4] = tested on: MDRAB clinical strain AE5; type: cell-based, Acinetobacter baumannii; conditions: 24 h
Method: as §2

[5] = tested on: Acinetobacter baumannii 19,606; type: cell-based; conditions: 19,606, 24 h
Method: as §2

[6] = tested on: MDRAB clinical strain U80; type: cell-based, Acinetobacter baumannii; conditions: 24 h
Method: as §2

[7] = tested on: MDRAB clinical strain AK29; type: cell-based, Acinetobacter baumannii; conditions: 24 h
[8] = tested on: MDRAB clinical strain W11; type: cell-based, Acinetobacter baumannii; conditions: 24 h
Method: as §2

[9] = tested on: MDRAB clinical strain AF93; type: cell-based, Acinetobacter baumannii; conditions: 24 h
Method: as §2

[10] = tested on: MDRAB clinical strain AE6; type: cell-based, Acinetobacter baumannii; conditions: 24 h
[11] = tested on: MDRAB clinical strain AF12; type: cell-based, Acinetobacter baumannii; conditions: 24 h
[12] = tested on: MDRAB clinical strain AL87; type: cell-based, Acinetobacter baumannii; conditions: 24 h
Method: as §2

[13] = tested on: MDRAB clinical strain Y92; type: cell-based, Acinetobacter baumannii; conditions: 24 h
Method: as §2

[14] = tested on: MDRAB clinical strain D29; type: cell-based, Acinetobacter baumannii; conditions: 24 h
Method: as §2

MDRAB strain MO91 = type: cell-based, Acinetobacter baumannii; conditions: 24 h
Method: (§1) All AMPs and TP4 derivatives used in this study were synthesized by Kelowna International Scientific Inc. (Taipei City, Taiwan) with more than 95% purity, and their molecular weights were verified by mass spectrum analysis. MBC were determined by extending the MIC procedure in sterilized 96-well polypropylene microtiter plates according to the broth microdilution guidelines of the Clinical and Laboratory Standards Institute with some modification. Briefly, 5 × 10^5 CFU/mL of bacteria were inoculated in LB medium containing AMPs or antibiotic at final concentrations ranging from 512 to 1 μg/mL (from serial twofold dilutions). After incubation for 24 h at 37 °C, the lowest concentration showing no visible growth was used as the MIC value. In addition, 10 µL was drawn from each well with no visible turbidity onto LB agar plates and incubated for 24 h at 37 °C. The lowest concentration showing no visible growth on agar subculture was used as the MBC value. All experiments were performed in triplicate.

MDRAB strain BF50 = type: cell-based, Acinetobacter baumannii; conditions: 24 h
Method: as §1

[15] = tested on: MDRAB clinical strain J49; type: cell-based, Acinetobacter baumannii; conditions: 24 h
Method: as §2

[16] = tested on: MDRAB clinical strain AO80; type: cell-based, Acinetobacter baumannii; conditions: 24 h
Method: as §2

[17] = tested on: MDRAB clinical strain AG51; type: cell-based, Acinetobacter baumannii; conditions: 24 h
Method: as §2

[18] = tested on: MDRAB clinical strain U95; type: cell-based, Acinetobacter baumannii; conditions: 24 h
Method: as §2

[19] = tested on: MDRAB clinical strain O59; type: cell-based, Acinetobacter baumannii; conditions: 24 h
Method: as §2

[20] = tested on: Acinetobacter baumannii 17,978; type: cell-based; conditions: 17,978, 24 h;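 also: CLSI broth microdilution in 96-well polypropylene plates, MBC taken as lowest concentration giving no growth when clear wells were subcultured on LB agar for 24 h at 37 °C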
Method: as §2

[21] = tested on: MDRAB clinical strain AN10; type: cell-based, Acinetobacter baumannii; conditions: 24 h
Method: as §2

[22] = tested on: MDRAB clinical strain L87; type: cell-based, Acinetobacter baumannii; conditions: 24 h
Method: as §2

[23] = tested on: MDRAB clinical strain AS40; type: cell-based, Acinetobacter baumannii; conditions: 24 h

## FIHHIIGGLFSAGKAIHRLIRRRRR [TP4]
MDRAB clinical strain K2
  MBC: 32 µg/mL
  MIC: 16 µg/mL
[1]
  MBC: 16 µg/mL
  MIC: 16 µg/mL
[2]
  MBC: 32 µg/mL
  MIC: 32 µg/mL
[3]
  MBC: 16 µg/mL
  MIC: 16 µg/mL
[4]
  MBC: 32 µg/mL
  MIC: 16 µg/mL
[5]
  MBC: 16 µg/mL
  MIC: 16 µg/mL
[6]
  MBC: 32 µg/mL
  MIC: 32 µg/mL
[7]
  MBC: 16 µg/mL
  MIC: 16 µg/mL
[8]
  MBC: 16 µg/mL
  MIC: 16 µg/mL
[9]
  MBC: 16 µg/mL
  MIC: 16 µg/mL
[10]
  MBC: 16 µg/mL
  MIC: 16 µg/mL
[11]
  MBC: 16 µg/mL
  MIC: 16 µg/mL
[12]
  MBC: 16 µg/mL
  MIC: 16 µg/mL
[13]
  MBC: 16 µg/mL
  MIC: 16 µg/mL
[14]
  MBC: 32 µg/mL
  MIC: 32 µg/mL
MDRAB strain MO91
  MBC: 32 µg/mL
  MIC: 16 µg/mL
MDRAB strain BF50
  MBC: 16 µg/mL
  MIC: 16 µg/mL
[15]
  MBC: 16 µg/mL
  MIC: 16 µg/mL
[16]
  MBC: 32 µg/mL
  MIC: 32 µg/mL
[17]
  MBC: 16 µg/mL
  MIC: 8 µg/mL
[18]
  MBC: 64 µg/mL
  MIC: 32 µg/mL
[19]
  MBC: 32 µg/mL
  MIC: 32 µg/mL
[20]
  MBC: 16 µg/mL
  MIC: 16 µg/mL
[21]
  MBC: 8 µg/mL
  MIC: 8 µg/mL
[22]
  MBC: 32 µg/mL
  MIC: 32 µg/mL
[23]
  MBC: 32 µg/mL
  MIC: 32 µg/mL
